From ChEMBL document CHEMBL1201862, “PubChem BioAssay data set” (2004)
Activity calls are given as the source filed them. For most assays here, no stated cut-off is given here; in the data, actives have a measured EC50 and inactives only a lower limit.

Assays:
[1] = NIH-3T3 fibroblast cytotoxicity, dose response, cytotoxicity control, cell-based, fluorescence, Alamar Blue, secondary assay (AID 2327); assay type: functional;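 further: NIH-3T3 mouse fibroblasts cultured with fluconazole at 8 µg/mL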
[2] = fluconazole-exposed Candida albicans growth modulators – fluorescence, retest, confirmation (AID 2467); assay type: functional, cell-based
[3] = target: Serine/threonine-protein phosphatase (Candida dubliniensis (strain CD36 / CBS 7987 / NCPF 3949 / NRRLY-17841) (Yeast), UniProt B9W6M3); experiment: blockers of CaCl2-induced CDRE-lacZ signaling – S. cerevisiae, luminescence, secondary, dose response (AID 2388); assay type: functional, cell-based;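 further: yeast reporter cells carrying a calcineurin-responsive lacZ construct stimulated with calcium chloride; luminescent beta-galactosidase reporter signal in whole cells rather than isolated phosphatase activity; potency for inhibition where a drop in reporter signal means calcineurin blockade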
Serine/threonine-protein phosphatase, sequence (B9W6M3 whole entry): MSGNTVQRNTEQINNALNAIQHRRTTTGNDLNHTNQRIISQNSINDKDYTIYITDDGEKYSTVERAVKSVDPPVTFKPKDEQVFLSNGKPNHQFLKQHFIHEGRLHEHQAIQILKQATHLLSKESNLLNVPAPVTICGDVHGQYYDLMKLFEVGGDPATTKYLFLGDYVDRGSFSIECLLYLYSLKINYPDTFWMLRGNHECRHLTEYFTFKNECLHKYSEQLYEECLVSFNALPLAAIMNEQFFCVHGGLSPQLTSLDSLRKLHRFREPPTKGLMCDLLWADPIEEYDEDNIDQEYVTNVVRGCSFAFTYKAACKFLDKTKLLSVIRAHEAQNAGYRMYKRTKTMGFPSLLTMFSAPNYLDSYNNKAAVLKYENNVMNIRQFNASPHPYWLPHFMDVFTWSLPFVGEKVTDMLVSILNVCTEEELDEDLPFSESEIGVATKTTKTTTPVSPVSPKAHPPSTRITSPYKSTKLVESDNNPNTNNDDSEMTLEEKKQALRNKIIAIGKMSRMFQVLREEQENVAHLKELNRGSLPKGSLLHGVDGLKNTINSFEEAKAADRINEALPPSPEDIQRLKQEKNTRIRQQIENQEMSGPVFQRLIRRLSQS

[4] = Luminescence Cell-Based Dose Retest to Confirm Inhibitors of Cancer Stem Cells. [Related pubchem assays (depositor defined):AID2717, AID2721]; assay type: functional; conditions: Homo sapiens
[5] = target: ATP-dependent molecular chaperone HSP82 (Candida albicans (strain WO-1) (Yeast), UniProt C4YTQ8); experiment: steroid-induced GRE reporter decrease in yeast – S. cerevisiae, luminescence, Hsp90 inhibitor project, dose response (AID 2400); assay type: functional, cell-based;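 further: beta-galactosidase luminescence from glucocorticoid response element reporter as proxy for Hsp90 function; inhibitor potency where signal loss means Hsp90 inhibition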
ATP-dependent molecular chaperone HSP82, sequence (C4YTQ8 whole entry): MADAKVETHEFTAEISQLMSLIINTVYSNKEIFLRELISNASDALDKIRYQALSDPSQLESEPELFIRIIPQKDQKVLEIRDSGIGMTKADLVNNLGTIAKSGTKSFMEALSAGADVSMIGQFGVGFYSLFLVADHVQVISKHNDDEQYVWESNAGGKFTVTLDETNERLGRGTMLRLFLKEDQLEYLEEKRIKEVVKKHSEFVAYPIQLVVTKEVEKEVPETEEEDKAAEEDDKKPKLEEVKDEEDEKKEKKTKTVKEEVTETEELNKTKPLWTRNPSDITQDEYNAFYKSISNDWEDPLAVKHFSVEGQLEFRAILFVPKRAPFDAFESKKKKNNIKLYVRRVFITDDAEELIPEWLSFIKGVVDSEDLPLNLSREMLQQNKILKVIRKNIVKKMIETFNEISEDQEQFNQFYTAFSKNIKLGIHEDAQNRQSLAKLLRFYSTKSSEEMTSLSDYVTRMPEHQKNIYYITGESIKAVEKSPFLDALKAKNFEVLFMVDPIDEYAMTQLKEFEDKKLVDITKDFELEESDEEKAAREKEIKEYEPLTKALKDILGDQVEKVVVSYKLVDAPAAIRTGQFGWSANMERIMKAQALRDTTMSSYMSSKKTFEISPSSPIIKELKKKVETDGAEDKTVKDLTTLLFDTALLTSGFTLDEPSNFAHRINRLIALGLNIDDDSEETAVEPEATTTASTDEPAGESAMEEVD

[6] = test system: Streptococcus sp. 'group A'; experiment: Streptococcus pyogenes SK(-)GAS viability under kanamycin – luminescence, BacTiterGlo, confirmation, counter-screen for streptokinase expression inhibitor project, dose response (AID 1900); assay type: functional, organism-based
Streptokinase A = target: T1, Streptokinase A (Streptococcus pyogenes serotype M1, UniProt P10520); experiment: viability-normalized secreted streptokinase activity reduction – plasminogen activation absorbance, OD405, dose response (AID 1914); assay type: functional, Streptococcus pyogenes M1 GAS;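 further: secreted streptokinase activity via plasminogen activation per viability signal from cell pellet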
T1 sequence (P10520 whole entry): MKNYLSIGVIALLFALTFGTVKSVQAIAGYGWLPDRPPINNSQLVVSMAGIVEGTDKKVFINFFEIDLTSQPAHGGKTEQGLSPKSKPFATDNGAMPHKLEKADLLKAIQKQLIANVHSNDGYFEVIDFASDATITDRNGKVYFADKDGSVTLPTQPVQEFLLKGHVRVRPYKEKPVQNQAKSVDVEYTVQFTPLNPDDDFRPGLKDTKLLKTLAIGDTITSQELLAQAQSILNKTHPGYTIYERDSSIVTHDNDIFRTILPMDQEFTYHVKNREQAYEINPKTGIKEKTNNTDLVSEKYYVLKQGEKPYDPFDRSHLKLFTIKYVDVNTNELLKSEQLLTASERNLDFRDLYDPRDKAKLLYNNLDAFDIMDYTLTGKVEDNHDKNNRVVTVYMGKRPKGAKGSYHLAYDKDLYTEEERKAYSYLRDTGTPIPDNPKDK

[7] = Trypanosoma cruzi growth suppression in host cells – NIH3T3 host cells, beta-gal luminescence, confirmation (AID 2044); assay type: functional, cell-based;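 further: intracellular parasites grown in NIH/3T3 mouse fibroblasts as host cells; luminescent beta-galactosidase reporter signal from transgenic T. cruzi replicating inside host cells; inhibitors lower the luminescence signal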
[8] = NIH3T3 cell viability loss – ATP luminescence, mouse fibroblasts, counter-screen, dose response (AID 2010); assay type: functional, cell-based;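 further: cells exposed to compound for about 90 hours before reading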
Streptococcus = experiment: GAS UMAA2166 growth inhibition – luminescence, BacTiterGlo, counter-screen for streptokinase expression inhibitor project, dose response (AID 1915); assay type: functional, organism-based;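 further: potency for reduction of bacterial viability or growth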
[9] = target: T2, Replicative DNA helicase DnaB (Mycobacterium tuberculosis, UniProt P9WMR3); experiment: DnaB intein splicing inhibitors, dose response, biochemical, cell-free fluorescence (AID 449749); assay type: functional
T2 sequence (P9WMR3 whole entry): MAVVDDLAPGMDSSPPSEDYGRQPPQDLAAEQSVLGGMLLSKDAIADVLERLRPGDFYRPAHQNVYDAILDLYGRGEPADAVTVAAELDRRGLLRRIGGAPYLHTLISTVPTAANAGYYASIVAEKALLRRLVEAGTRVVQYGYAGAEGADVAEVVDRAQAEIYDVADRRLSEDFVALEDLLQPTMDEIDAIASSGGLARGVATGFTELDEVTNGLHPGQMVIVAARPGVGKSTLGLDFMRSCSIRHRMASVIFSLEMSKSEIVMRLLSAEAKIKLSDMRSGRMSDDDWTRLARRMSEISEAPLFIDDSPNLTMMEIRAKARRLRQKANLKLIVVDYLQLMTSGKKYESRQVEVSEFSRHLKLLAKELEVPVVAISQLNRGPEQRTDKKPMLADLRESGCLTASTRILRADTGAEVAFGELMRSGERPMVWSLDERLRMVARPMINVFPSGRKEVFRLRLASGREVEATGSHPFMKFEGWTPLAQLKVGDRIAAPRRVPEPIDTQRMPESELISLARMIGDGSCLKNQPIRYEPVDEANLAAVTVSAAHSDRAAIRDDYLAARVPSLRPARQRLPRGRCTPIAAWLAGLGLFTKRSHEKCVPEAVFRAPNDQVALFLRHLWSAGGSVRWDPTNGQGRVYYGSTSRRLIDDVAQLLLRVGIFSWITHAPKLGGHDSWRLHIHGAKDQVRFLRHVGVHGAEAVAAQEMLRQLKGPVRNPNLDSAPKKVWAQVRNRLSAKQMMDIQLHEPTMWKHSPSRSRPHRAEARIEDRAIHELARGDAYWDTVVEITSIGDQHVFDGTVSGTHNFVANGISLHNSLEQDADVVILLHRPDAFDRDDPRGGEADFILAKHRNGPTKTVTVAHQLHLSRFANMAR

Protein RecA = target: T3, Protein RecA (Mycobacterium tuberculosis, UniProt P9WHJ3); experiment: Fluorescence Cell-Free Homogeneous Dose Retest to Identify Inhibitors of RecA-Intein Splicing Activity. [Related pubchem assays (depositor defined):AID2097, AID2223, AID489010, AID492950]; assay type: functional
T3 sequence (P9WHJ3 whole entry): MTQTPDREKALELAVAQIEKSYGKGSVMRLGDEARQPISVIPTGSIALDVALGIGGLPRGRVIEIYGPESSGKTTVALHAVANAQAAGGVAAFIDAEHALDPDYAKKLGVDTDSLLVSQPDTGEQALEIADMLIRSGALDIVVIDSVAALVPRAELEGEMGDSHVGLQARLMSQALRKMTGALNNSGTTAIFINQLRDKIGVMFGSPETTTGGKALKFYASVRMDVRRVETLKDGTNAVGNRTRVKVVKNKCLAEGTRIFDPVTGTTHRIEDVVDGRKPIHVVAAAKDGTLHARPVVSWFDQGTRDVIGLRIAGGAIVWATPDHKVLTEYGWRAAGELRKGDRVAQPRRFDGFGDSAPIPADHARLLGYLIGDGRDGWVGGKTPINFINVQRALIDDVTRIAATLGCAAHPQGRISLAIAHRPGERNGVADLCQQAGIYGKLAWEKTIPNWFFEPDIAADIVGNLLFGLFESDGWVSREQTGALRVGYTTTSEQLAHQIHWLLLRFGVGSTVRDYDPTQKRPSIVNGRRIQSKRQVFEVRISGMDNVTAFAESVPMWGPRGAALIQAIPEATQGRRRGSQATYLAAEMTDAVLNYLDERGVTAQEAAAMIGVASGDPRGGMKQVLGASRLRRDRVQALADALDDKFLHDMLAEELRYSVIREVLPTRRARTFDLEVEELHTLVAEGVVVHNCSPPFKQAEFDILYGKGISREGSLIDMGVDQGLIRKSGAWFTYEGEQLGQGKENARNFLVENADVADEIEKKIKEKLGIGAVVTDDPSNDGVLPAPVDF

[10] = target: 26S proteasome non-ATPase regulatory subunit 14 (Homo sapiens, UniProt O00487); experiment: inhibition of proteasome subunit RPN11 – biochemical, fluorescence polarization, uHTS hits, confirmation (AID 602368); assay type: functional
26S proteasome non-ATPase regulatory subunit 14, sequence (O00487 whole entry): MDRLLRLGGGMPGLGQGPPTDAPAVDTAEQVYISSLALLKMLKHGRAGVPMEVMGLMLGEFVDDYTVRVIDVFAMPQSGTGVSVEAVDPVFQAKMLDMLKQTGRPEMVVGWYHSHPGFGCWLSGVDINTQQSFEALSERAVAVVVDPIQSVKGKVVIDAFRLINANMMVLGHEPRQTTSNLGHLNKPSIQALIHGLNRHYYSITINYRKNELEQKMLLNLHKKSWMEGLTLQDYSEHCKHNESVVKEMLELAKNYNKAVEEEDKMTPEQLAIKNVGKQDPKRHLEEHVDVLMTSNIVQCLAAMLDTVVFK

[11] = target: 72 kDa type IV collagenase (Homo sapiens, UniProt P08253); experiment: Dose Response validation of uHTS RPN11 inhibitor hits using a MMP-2 Fluorescence assay.; assay type: functional
72 kDa type IV collagenase, sequence (P08253 whole entry): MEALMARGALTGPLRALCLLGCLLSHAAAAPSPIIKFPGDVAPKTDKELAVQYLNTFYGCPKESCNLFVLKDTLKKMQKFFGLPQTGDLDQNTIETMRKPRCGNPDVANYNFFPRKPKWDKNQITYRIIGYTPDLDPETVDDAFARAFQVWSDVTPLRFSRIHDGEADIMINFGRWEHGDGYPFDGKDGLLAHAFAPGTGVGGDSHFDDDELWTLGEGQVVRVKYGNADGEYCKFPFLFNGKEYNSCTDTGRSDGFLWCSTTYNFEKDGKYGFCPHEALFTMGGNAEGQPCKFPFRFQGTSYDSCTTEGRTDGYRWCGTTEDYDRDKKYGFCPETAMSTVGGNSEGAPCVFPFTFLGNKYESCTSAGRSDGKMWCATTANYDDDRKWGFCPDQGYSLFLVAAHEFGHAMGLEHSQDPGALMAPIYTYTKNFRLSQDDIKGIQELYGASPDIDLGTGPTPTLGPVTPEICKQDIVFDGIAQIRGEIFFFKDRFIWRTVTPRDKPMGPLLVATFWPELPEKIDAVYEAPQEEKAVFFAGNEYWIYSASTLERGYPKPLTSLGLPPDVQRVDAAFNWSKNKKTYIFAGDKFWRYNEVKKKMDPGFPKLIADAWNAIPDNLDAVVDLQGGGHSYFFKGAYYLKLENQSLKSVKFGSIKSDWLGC

Prothrombin = Prothrombin (Bos taurus, UniProt P00735); experiment: thrombin protease inhibitors – biochemical, fluorescence polarization, uHTS hits, dose response (AID 602369); assay type: functional
[12] = luciferase reporter signal suppression in cells – H4 neuroglioma cells, luminescence, dose response (AID 1990); assay type: functional, cell-based
BJ [13] = experiment: BJ-TERT fibroblast viability loss – cell-based, RAS-independent, luminescence, dose response (AID 1933); assay type: functional; conditions: Homo sapiens
[14] = Luminescence Cell-Based Dose Response HTS to Identify Inhibitors of 5'UTR Stem-Loop Driven Prion Protein mRNA Translation in H4 Neuroglioblastoma Cells. [Related pubchem assays: 1827 (Project Summary), 1813 (Primary HTS)]; assay type: functional
[15] = alpha-synuclein stem-loop luciferase translation blockers – H4 neuroglioma cells, luminescence, confirmation (AID 1988); assay type: functional, cell-based
BJ [16] = experiment: cells; assay type: functional, cell-based; conditions: Homo sapiens
NS3 = NS3 (Hepatitis C virus, UniProt A3EZJ3); experiment: PubChem AID 2173; design: species or system Hepacivirus hominis
NS3, sequence (A3EZJ3 whole entry): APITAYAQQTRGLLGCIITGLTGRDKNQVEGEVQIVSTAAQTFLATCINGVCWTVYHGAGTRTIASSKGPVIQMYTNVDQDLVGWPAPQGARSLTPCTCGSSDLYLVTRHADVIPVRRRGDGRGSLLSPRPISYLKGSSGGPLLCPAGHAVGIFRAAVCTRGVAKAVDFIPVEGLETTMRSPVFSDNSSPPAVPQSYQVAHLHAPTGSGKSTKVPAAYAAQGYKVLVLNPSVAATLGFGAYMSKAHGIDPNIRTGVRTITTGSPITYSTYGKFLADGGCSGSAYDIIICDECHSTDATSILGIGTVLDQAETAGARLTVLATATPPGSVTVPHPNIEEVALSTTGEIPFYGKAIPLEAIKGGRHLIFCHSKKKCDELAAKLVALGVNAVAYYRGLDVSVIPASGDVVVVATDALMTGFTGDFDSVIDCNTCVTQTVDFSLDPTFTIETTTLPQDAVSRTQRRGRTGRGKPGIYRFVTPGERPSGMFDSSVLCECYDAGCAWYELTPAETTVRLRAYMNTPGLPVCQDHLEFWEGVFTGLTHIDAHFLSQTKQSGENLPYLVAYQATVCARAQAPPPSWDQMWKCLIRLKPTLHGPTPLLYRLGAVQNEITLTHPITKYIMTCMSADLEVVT

BJ [17] = experiment: BJ-TERT-LT-ST fibroblast viability loss – cell-based, RAS-independent, luminescence, dose response (AID 1935); assay type: functional; conditions: Homo sapiens;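 further: BJ fibroblasts immortalized with TERT plus LT and ST oncogenes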
[18] = DRD fibroblast viability loss – cell-based, non-viral oncogenic, luminescence, dose response (AID 1934); assay type: functional; conditions: Homo sapiens
[19] = target: Heat shock protein HSP 90-alpha (Homo sapiens, UniProt P07900); assay type: functional, organism-based
[20] = target: Hepatocyte nuclear factor 4-alpha (Homo sapiens, UniProt P41235); assay type: functional, cell-based;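 further: biochemical luminescence-based dose-response counterscreen measuring inhibition of HNF4 dimerization, run alongside a screen for blockers of ABHD5–perilipin-5 interaction; split luciferase complementation of HNF4 fusion proteins in cell lysate measuring dimerization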
Hepatocyte nuclear factor 4-alpha, sequence (P41235 whole entry, the tested form may be a part): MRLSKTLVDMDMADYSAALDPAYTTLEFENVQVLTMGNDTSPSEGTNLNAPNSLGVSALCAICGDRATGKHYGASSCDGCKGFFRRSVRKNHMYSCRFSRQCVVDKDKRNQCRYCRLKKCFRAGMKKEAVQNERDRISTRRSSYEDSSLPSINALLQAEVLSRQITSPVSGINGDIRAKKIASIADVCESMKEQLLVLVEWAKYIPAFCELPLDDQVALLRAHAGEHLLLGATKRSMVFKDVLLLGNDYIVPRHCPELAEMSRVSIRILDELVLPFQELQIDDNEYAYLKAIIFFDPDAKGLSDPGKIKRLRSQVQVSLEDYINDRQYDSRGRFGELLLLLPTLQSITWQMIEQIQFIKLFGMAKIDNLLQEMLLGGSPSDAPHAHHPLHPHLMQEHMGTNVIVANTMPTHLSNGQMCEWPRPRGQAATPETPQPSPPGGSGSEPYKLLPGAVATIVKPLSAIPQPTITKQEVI

CAAX prenyl protease 2 [21] = target: CAAX prenyl protease 2 (Saccharomyces cerevisiae S288c, UniProt Q03530); assay type: biochemical
CAAX prenyl protease 2 (Saccharomyces cerevisiae S288c, UniProt Q03530), sequence (Q03530 whole entry): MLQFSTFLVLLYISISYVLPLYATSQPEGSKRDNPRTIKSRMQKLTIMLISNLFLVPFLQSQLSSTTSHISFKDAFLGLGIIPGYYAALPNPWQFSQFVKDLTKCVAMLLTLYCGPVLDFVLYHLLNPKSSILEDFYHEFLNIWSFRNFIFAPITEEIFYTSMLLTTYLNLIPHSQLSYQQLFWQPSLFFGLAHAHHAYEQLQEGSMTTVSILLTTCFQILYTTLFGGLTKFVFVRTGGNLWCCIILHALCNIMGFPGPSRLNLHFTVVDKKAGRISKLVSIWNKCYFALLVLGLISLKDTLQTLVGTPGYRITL

CAAX prenyl protease 1 = CAAX prenyl protease 1 (Saccharomyces cerevisiae S288c, UniProt P47154); experiment: yeast CAAX protease Ste24 inhibition – biochemical, S. cerevisiae, plate reader, cherry-pick, dose response (AID 488815)
CAAX prenyl protease 1, sequence (P47154 whole entry): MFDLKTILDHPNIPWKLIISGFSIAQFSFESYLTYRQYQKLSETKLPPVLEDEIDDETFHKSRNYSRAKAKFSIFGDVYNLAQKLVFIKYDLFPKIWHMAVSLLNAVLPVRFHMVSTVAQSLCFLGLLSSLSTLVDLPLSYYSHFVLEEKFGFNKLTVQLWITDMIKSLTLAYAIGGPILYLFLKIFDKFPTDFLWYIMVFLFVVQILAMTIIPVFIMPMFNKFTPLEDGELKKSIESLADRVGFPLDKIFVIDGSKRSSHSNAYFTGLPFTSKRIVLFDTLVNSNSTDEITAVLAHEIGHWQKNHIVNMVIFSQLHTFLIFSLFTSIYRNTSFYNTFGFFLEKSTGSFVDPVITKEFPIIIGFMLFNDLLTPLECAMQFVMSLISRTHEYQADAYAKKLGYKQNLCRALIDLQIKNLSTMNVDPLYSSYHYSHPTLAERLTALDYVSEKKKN

CAAX prenyl protease 2 [22] = target: CAAX prenyl protease 2 (Homo sapiens, UniProt Q9Y256); experiment: inhibition of Ras-converting CAAX protease Rce1 – biochemical, yeast membranes, quenched-peptide fluorescence, cherry-pick, dose response (AID 588849)
CAAX prenyl protease 2 (Homo sapiens, UniProt Q9Y256), sequence (Q9Y256 whole entry): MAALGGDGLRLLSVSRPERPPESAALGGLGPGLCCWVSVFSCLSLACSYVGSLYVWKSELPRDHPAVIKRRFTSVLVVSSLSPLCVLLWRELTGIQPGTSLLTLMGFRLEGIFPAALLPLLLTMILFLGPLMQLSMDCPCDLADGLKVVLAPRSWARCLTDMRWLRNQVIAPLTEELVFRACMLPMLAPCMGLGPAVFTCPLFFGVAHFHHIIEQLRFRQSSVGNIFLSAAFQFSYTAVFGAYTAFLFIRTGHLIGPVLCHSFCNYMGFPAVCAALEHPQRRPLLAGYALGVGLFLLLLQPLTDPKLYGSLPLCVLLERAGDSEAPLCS

Vero = experiment: cells; assay type: functional; conditions: Chlorocebus sabaeus
HEK293 [23] = experiment: inhibition of NOD1-driven NF-kB reporter – cell-based, luminescence, uHTS, primary screen (AID 1578); assay type: functional; conditions: Homo sapiens
HEK293 [24] = experiment: cells; assay type: functional, cell-based; conditions: Homo sapiens
HEK293 [25] = experiment: cells; assay type: functional, cell-based; conditions: Homo sapiens; remark: listed apart in the source
HEK293 [26] = experiment: NOD2 signaling inhibitors in MDP-stimulated cells, cell-based, uHTS, luminescence (AID 2001); assay type: functional; conditions: Homo sapiens
[27] = target: DNA repair protein RAD52 homolog (Homo sapiens, UniProt P43351); assay type: functional, biochemical
DNA repair protein RAD52 homolog, sequence (P43351 whole entry): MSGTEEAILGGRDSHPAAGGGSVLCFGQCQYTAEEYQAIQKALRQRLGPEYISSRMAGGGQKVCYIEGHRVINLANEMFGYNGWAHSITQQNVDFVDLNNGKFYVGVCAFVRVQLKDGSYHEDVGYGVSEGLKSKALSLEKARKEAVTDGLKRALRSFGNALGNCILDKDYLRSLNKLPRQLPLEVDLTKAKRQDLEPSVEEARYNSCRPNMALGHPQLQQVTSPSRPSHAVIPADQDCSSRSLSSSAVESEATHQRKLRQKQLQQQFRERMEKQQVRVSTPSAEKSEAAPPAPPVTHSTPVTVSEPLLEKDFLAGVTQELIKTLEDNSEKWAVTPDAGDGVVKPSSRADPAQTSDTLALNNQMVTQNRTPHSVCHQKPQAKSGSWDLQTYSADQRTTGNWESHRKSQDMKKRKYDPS

Structure (SMILES): Cc1cccc(C(=O)NNC2=C(C(=O)C(F)(F)F)CCC2)c1O
- EC50 [1]: > 160 µM (inactive)
- EC50 [2]: 0.53 µM (active)
- EC50 [3]: > 180 µM (inactive)
- AC50 [4]: 3.16 µM (active)
- EC50 [5]: 35.6 µM (active)

Structure (SMILES): Nc1c(-c2ccccc2)c(CSc2nc3ccccc3[nH]2)nn1-c1cccc(Cl)c1
- EC50 [6]: 2.14 µM (active)
- EC50 (Streptokinase A): > 150 µM (not active)
- EC50 [7]: 1.17 µM (active)
- EC50 [8]: > 60 µM (not active)
- EC50 (Streptococcus): > 150 µM (not active)
- AC50 [9]: 3.17 µM (active)
- EC50 (Protein RecA): 2.71 µM (active)
- IC50 [10]: 34 µM (active)
- IC50 [11]: > 100 µM (inactive)
- IC50 (Prothrombin): 41.5 µM (active)

Structure (SMILES): Cc1ccc(C)c(/C=C/C(=O)c2ccccc(=O)c2O)c1
- EC50 [1]: > 150 µM (inactive)
- EC50 [12]: 13.9 µM (active)
- EC50 [6]: 1.41 µM (active)
- EC50 (BJ [13]): 17.2 µM (inconclusive)
- EC50 [14]: > 120 µM (not active)
- EC50 [15]: 12.7 µM (active)
- EC50 (BJ [16]): 14.4 µM (active)
- EC50 [2]: 1.47 µM (active)
- IC50 (NS3): 2.52 µM (active)
- EC50 [7]: 2.29 µM (active)
- EC50 [8]: 8.18 µM (active)
- EC50 (BJ [17]): > 150 µM (not active)
- EC50 [18]: 56.8 µM (inconclusive)
- EC50 (Streptococcus): 5 µM (active)
- AC50 [19]: 2.42 µM (active)
- IC50 [20]: 6.56 µM (active)

Structure (SMILES): CNC(=S)N/N=C/c1cn(Cc2c(F)cccc2Cl)c2ccccc12
- AC50 (CAAX prenyl protease 2 [21]): 0.818 µM (active)
- AC50 (CAAX prenyl protease 1): 7.58 µM (active)
- AC50 (CAAX prenyl protease 2 [22]): 16 µM (active)

Structure (SMILES): CCOc1ccc(Oc2c(/C=N/NC(=O)COc3ccccc3OC)c(C)nn2-c2ccccc2)cc1
- CC50 (Vero): > 25 µM (active)

Structure (SMILES): CCC(C)(C)c1ccc(OCCCC[n+]2cccc(C)c2)c(C(C)(C)CC)c1
- EC50 (HEK293 [23]): 8.28 µM (active)
- EC50 [6]: 6.58 µM (active)
- IC50 (HEK293 [24]): 4.11 µM (active)
- EC50 (Streptokinase A): 14.1 µM (active)
- IC50 (HEK293 [25]): 7.99 µM (active)
- IC50 (HEK293 [26]): 3.36 µM (active)
- EC50 [7]: < 0.1 µM (active)
- EC50 [8]: > 30 µM (not active)
- EC50 (Streptococcus): 14.9 µM (active)
- AC50 (CAAX prenyl protease 2 [21]): 10.5 µM (active)
- AC50 (CAAX prenyl protease 2 [22]): 22 µM (active)
- AC50 [27]: 7.32 µM (active)
- EC50 (cells): 0.128 µM (active)
